Data on three compounds can be found in patent publication US9556231B2, “Beta-hairpin peptidomimetics as CXC4 antagonists” (POLYPHOR AG, priority 2011, dated 2017).

The nature of data set [1]: Pharmacokinetic study (PK), i.v., CD-1 mice. The format is in vivo. The following applies: mouse, i.v. 1 mg/kg; for level at 0.083 h / level at 0.25 h / level at 0.5 h / level at 1 h / level at 2 h / level at 3 h / level at 4 h / AUC(0-inf) / Cmax / clearance / half-life / Vd: male, CD-1, in vivo, iv; for level at 0.083 h / level at 0.25 h / level at 0.5 h / level at 1 h / level at 2 h / level at 3 h / level at 4 h: read-out: Calc. Conc. (plasma); for AUC(0-inf) / Cmax / clearance / half-life / Vd: one-compartmental model; for Vd: read-out: Vdis. The method, then: For the compounds of Ex. 1, Ex. 2, Ex. 3, Ex. 4, Ex. 5 and Ex. 6 pharmacokinetic studies after intravenous (i.v.) administration were performed.
30 grams (±20%) male CD-1 mice obtained from Charles River Laboratories Deutschland GmbH were used. The vehicle, phosphate buffered saline, was added to give a final concentration of 0.5 mg/mL of the compound. The volume was 2 mL/kg and the compound was injected to give a final intravenous dose of 1 mg/kg. Approximately 300-400 μL of blood was removed under light isoflurane anesthesia by cardiac puncture at predetermined time intervals (5, 15, 30 min and 1, 2, 3, 4, hours) and added to heparinized tubes. Plasma was removed from pelleted cells upon centrifugation and frozen at −80° C. prior to HPLC-MS analysis.
Aliquots of 50 μL each of mouse plasma of untreated aminals (“blank” mouse plasma) were spiked with known amounts of the compounds Ex. 1, Ex. 2, Ex. 3, Ex. 4, Ex. 5 and Ex. 6 in order to obtain 10 plasma calibration samples for each compound in the range 1-4000 ng/mL. Aliquots of 50 μL each of mouse plasma from treated animals were used as plasma study samples.
All plasma samples were spiked with an appropriate internal standard and extracted with acetonitrile containing 2% formic acid. Supernatants were evaporated to dryness under nitrogen and the remaining solids reconstituted in water/acetonitrile 95/5 (v/v)+0.2% formic acid.
Extracts were then analyzed by reverse-phase chromatography (Acquity BEH C18, 100×2.1 mm, 1.7 μm column, Waters for Ex. 1 and Acquity HSS C18 SB, 100×2.1 mm, 1.8 μm column, Waters for Ex. 2, Ex. 3, Ex. 4, Ex. 5 and Ex. 6), using the following conditions: Ex. 1, mobile phases: (A) water/acetonitrile 95/5 (v/v)+0.1% formic acid, (B) acetonitrile/water 95/5 (v/v)+0.1% formic acid, gradient: 1% (B) 0-0.1 min, 15% (B) 0.1-2.5 min for Ex. 1 and 1% (B) 0-0.1 min, 40% (B) 0.1-2.5 min for Ex. 2, Ex. 3, Ex. 4, Ex. 5 and Ex. 6. The detection and quantification was performed by mass spectrometry, with electrospray interface in positive mode and selective fragmentation of analytes (4000 Q Trap mass spectrometer, AB Sciex).
PK parameters were calculated by WinNonLin™ software version 5.3 (Pharsight-A Certara™ Company, Mountain View, Calif. 94041 USA) using a one-compartmental model analysis. PK parameters were determined by least-square fitting of the model to the experimental data.

Data set [2] in a line: Cytotoxicity, MTT reduction assay, COS-7 cells. The class given is cell-based. The following applies: African green monkey. The method, then:
Namalwa cells (CXCR4 natively expressing non-adherent cells, ATCC CRL-1432) were cultured in RPMI1640 plus 10% FBS, and pen/strept. HELA cells were maintained in RPMI1640 plus 10% FBS, pen/strept and 2 mM L-glutamine. Cos-7 cells were grown in DMEM medium with […] glucose supplemented with 10% FCS, pen/strept and 2 mM L-glutamine. All cell lines were grown at 37° C. at 5% CO2. Cell media, media supplements, PBS-buffer, HEPES, antibiotic/antimycotic, pen/strept, non essential amino acid, L-glutamine, β-mercaptoethanol and sera were purchased from Gibco (Pailsey, UK). All fine chemicals were supplied by Merck (Darmstadt, Germany).
The cytotoxicity of the peptides to HELA cells (Acc57) and COS-7 cells (CRL-1651) was determined using the MTT reduction assay (T. Mossman, J. Immunol. Meth. 1983, 65, 55-63; M. V. Berridge, A. S. Tan, Arch. Biochem. Biophys. 1993, 303, 474-482). Briefly, the method was as follows: 4000 HELA cells/well and 3400 COS-7 cells/well were seeded and grown in 96-well microtiter plates for 24 h at 37° C. at 5% CO2. Thereafter, time zero (Tz) was determined by MTT reduction (see below). The supernatant of the remaining wells was discarded, and fresh medium and compounds in serial dilutions (12.5, 25 and 50 μM, triplicates; 0 μM, blank) were pipetted into the wells. After incubation of the cells for 48 h at 37° C. at 5% CO2 the supernatant was discarded again and 100 μL MTT reagent (0.5 mg/mL in RPMI1640 and DMEM, respectively)/well was added. Following incubation at 37° C. for 2-4 h the media were aspirated and the cells were spiked (100 μL isopropanol/well). The absorbance of the solubilized formazan was measured at 595 nm (OD595peptide). For each concentration averages were calculated from triplicates. The percentage of growth was calculated as follows: (OD595peptide−OD595Tz)/(OD595blank−OD595Tz)×100%. The GI50 (Growth Inhibition) concentrations were calculated for each peptide by using a trend line function for the concentrations (50, 25, 12.5 and 0 μM), the corresponding percentages and the value 50, (=TREND (C50:C0,%50:%0,50).
A general note: Formazan colour is commonly taken as a measure of viable cells.

The nature of data set [3]: Plasma stability, mouse plasma. The format is in vitro ADME. The conditions noted are these: 37° C.; for mouse pl. T1/2: up to 1440 min. The method, then: The stability of the peptides in human and mouse plasma was determined by applying the following method: 346.5 μL/deep well of freshly thawed human plasma (Basler Blutspende-dienst) and mouse plasma (Harlan Sera-Lab, UK), respectively, were spiked with 3.5 μL/well of compound dissolved in DMSO/H2O (90/10 [v/v], 1 mM, triplicate) and incubated at 37° C. At t=0, 15, 30, 60, 120, 240 and 1440 min aliquots of 50 μL were transferred to filtration plate wells containing 150 μL/well of 2% formic acid in acetonitrile. Following shaking for 2 min the occurred suspensions were filtrated by vacuum. 100 μL of each filtrate were transferred to a propylene microtiter plate and dried under N2. The residual solids were reconstituted by adding 100 μL/well of water/acetonitrile, 95/5 (v/v)+0.2% formic acid and analyzed by LC/MS as follows: Column: Waters, XBridge C18, mobile phases: (A) water+0.1% formic acid and (B) acetonitrile/water, 95/5 (v/v)+0.1% formic acid, gradient: 5%-100% (B) in 1.8 minutes, electrospray ionization, MRM detection (triple quadrupole). The peak areas were determined and triplicate values are averaged. The stability is expressed in percent of the initial value at t=0·(tx/t0×100). By using the TREND function of EXCEL (Microsoft Office 2003) T1/2 were determined.

Where [4] appears, read: 1440 min, read-out: mouse pl. cpd left at 1440 min.
The mark [5] stands for this setting: MTT, 48 h, up to 50 μM, read-out: Cytotoxicity Cos-7 Cells GI50.

Like-named read-outs stand apart in the source and are kept apart here. Bridge positions count the residues as written; N and C are the ends. Square brackets hold non-standard residues; d marks the D form. Peptide text beside a SMILES is read from it. Lys(iPr) = CC(C)NCCCC[C@H](N)C(=O)O; Orn(iPr) = CC(C)NCCC[C@H](N)C(=O)O

By AUC(0-inf) is commonly meant total exposure, with the tail of the curve extrapolated. In general, Cmax refers to the maximum level reached in the sampled fluid or tissue. In general, clearance refers to the volume of plasma or blood freed of the substance per unit of time. By half-life is commonly meant how long it takes for the measured level to halve. What is called GI50 is the concentration giving 50% growth inhibition.

Regarding `COc1ccc(C[C@H]2NC(=O)[C@H](C)NC(=O)[C@H](CO)NC(=O)[C@@H]3CSSC[C@H](NC(=O)[C@H](Cc4ccc(O)cc4)NC(=O)[C@H](CCCNC(=N)N)NC(=O)[C@H](CCCNC(C)C)NC2=O)C(=O)N[C@@H](Cc2ccc(O)cc2)C(=O)N[C@@H](CCC(N)=O)C(=O)N[C@@H](CCCCNC(C)C)C(=O)N2CCC[C@@H]2C(=O)N2CCC[C@H]2C(=O)N[C@@H](Cc2ccc(O)cc2)C(=O)N[C@@H](Cc2c[nH]cn2)C(=O)N[C@@H](C)C(=O)N3)cc1` [Ex. 4, cyclo(-Tyr^1-His^2-Ala^3-Cys^4-Ser^5-Ala^6-^DTyr(Me)^7-Orn(iPr)^8-Arg^9-Tyr^10-Cys^11-Tyr^12-Gln^13-Lys(iPr)^14-^DPro^15-Pro^16-), disulfide bond between Cys^4 and Cys^11] (cyclo(YHACSA[dY](Me)[Orn(iPr)]RYCYQ[Lys(iPr)][dP]P); disulfide 4-11), in data set [1], the level at 0.083 h is 1620 ng/mL, the level at 0.25 h was 869 ng/mL, the level at 0.5 h was 775 ng/mL and the level at 1 h is 504 ng/mL. In data set [1], the level at 2 h was 159 ng/mL, the level at 3 h is 25 ng/mL, the AUC(0-inf) worked out at 1340 ng·h/mL and the Cmax was found to be 1620 ng/mL. Besides, in data set [1], the clearance is 12.4 mL/min/kg, the half-life was 36 min and the Vd amounted to 0.607 L/kg. The level at 4 h in data set [1] (4 h) was 13 ng/mL. Moreover, the GI50 at 48 h in data set [2] was more than 50 µM. Besides, the remaining at 24 h in data set [3] (setting [4]) was determined as 60%. For the same compound, the “mouse pl. T1/2” value in data set [3] was determined as 1440 min.

For the compound `CC(C)NCCCC[C@@H]1NC(=O)[C@H](CCC(N)=O)NC(=O)[C@H](Cc2ccc(O)cc2)NC(=O)[C@@H]2CSSC[C@H](NC(=O)[C@H](Cc3ccc(O)cc3)NC(=O)[C@H](Cc3c[nH]cn3)NC(=O)[C@H](Cc3ccc(O)cc3)NC(=O)[C@@H]3CCCN3C(=O)[C@H]3CCCN3C1=O)C(=O)N[C@@H](CO)C(=O)N[C@@H](C)C(=O)N[C@H](Cc1ccc(O)cc1)C(=O)N[C@@H](CCCNC(C)C)C(=O)N[C@@H](CCCNC(=N)N)C(=O)N[C@@H](Cc1ccc(O)cc1)C(=O)N2` [Ex. 5, cyclo(-Tyr^1-His^2-Tyr^3-Cys^4-Ser^5-Ala^6-^DTyr^7-Orn(iPr)^8-Arg^9-Tyr^10-Cys^11-Tyr^12-Gln^13-Lys(iPr)^14-^DPro^15-Pro^16-), disulfide bond between Cys^4 and Cys^11] (cyclo(YHYCSA[dY][Orn(iPr)]RYCYQ[Lys(iPr)][dP]P); disulfide 4-11), in data set [1], the level at 0.083 h was 1310 ng/mL, the level at 0.25 h was 984 ng/mL, the level at 0.5 h was 350 ng/mL and the level at 1 h was 503 ng/mL. In addition, in data set [1], the level at 2 h is 150 ng/mL, the level at 3 h was 49 ng/mL, the AUC(0-inf) is 1200 ng·h/mL and the Cmax amounted to 1310 ng/mL. In addition, in data set [1], the clearance was 13.9 mL/min/kg, the half-life was 54 min and the Vd is 1.04 L/kg. Also, the level at 4 h in data set [1] (4 h) is 33 ng/mL. Moreover, the GI50 at 48 h in data set [2] (setting [5]) was more than 50 µM. Besides, the remaining at 24 h, 10 μM in data set [3] (setting [4]) amounted to 81%. For the same compound, the “mouse pl. T1/2” value in data set [3] was 1440 min.

For the compound `COc1ccc(C[C@@H]2NC(=O)[C@H](Cc3c[nH]cn3)NC(=O)[C@H](Cc3ccc(O)cc3)NC(=O)[C@@H]3CCCN3C(=O)[C@H]3CCCN3C(=O)[C@H](CCCCNC(C)C)NC(=O)[C@H](CCC(N)=O)NC(=O)[C@H](Cc3ccc(O)cc3)NC(=O)[C@@H]3CSSC[C@H](NC2=O)C(=O)N[C@@H](CO)C(=O)N[C@@H](C)C(=O)N[C@H](Cc2ccc(OC)cc2)C(=O)N[C@@H](CCCNC(C)C)C(=O)N[C@@H](CCCNC(=N)N)C(=O)N[C@@H](Cc2ccc(O)cc2)C(=O)N3)cc1` [Ex. 6, cyclo(-Tyr^1-His^2-Tyr(Me)^3-Cys^4-Ser^5-Ala^6-^DTyr(Me)^7-Orn(iPr)^8-Arg^9-Tyr^10-Cys^11-Tyr^12-Gln^13-Lys(iPr)^14-^DPro^15-Pro^16-), disulfide bond between Cys^4 and Cys^11] (cyclo(YHY(Me)CSA[dY](Me)[Orn(iPr)]RYCYQ[Lys(iPr)][dP]P); disulfide 4-11), in data set [1], the level at 0.083 h was 686 ng/mL, the level at 0.25 h was 435 ng/mL, the level at 0.5 h was 215 ng/mL and the level at 1 h is 75 ng/mL. Also, in data set [1], the level at 2 h was 36 ng/mL, the level at 3 h was 13 ng/mL, the AUC(0-inf) worked out at 409 ng·h/mL and the peak level (Cmax) was 686 ng/mL. In data set [1], the clearance is 40.8 mL/min/kg, the half-life was 48 min and the Vd was 2.98 L/kg. Further, the “Calc. Conc. (plasma)” value in data set [1] (4 h) was 7 ng/mL. Besides, the GI50 at 48 h in data set [2] (setting [5]) was more than 50 µM. Besides, the remaining at 24 h, 10 μM in data set [3] (setting [4]) was 68%. Further, the “mouse pl. T1/2” value in data set [3] was found to be 1440 min.
